Data: patent EP4745135A1 (Gluetacs Therapeutics (Shanghai) Co., Ltd., priority 2023, dated 2025)

Experiments:
CK1α = biological target: T1, CK1α (Homo sapiens, UniProt P48729+Q96SW2); assay: Western blot, degradation of substrate protein in hPBMCs; assay type: cell-based; details: Western blot, 24 hours of compound treatment, compounds tested at 50 nM and 500 nM (concentration for the table not stated)
T1 construct: effects of the compounds of the present disclosure on the expression of target proteins in cells; endogenous in cells; host or cells: human PBMCs (Milecell Biotechnologies)
T1 sequence (P48729 whole entry): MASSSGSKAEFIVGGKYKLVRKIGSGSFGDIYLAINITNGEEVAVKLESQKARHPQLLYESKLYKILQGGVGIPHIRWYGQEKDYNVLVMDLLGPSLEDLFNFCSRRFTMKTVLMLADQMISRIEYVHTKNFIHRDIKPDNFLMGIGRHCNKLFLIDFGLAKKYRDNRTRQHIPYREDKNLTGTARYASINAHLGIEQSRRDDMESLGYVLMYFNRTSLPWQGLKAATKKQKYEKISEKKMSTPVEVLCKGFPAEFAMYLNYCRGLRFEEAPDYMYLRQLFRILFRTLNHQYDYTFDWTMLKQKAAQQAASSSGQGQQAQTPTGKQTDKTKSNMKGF
T1 sequence (Q96SW2 whole entry): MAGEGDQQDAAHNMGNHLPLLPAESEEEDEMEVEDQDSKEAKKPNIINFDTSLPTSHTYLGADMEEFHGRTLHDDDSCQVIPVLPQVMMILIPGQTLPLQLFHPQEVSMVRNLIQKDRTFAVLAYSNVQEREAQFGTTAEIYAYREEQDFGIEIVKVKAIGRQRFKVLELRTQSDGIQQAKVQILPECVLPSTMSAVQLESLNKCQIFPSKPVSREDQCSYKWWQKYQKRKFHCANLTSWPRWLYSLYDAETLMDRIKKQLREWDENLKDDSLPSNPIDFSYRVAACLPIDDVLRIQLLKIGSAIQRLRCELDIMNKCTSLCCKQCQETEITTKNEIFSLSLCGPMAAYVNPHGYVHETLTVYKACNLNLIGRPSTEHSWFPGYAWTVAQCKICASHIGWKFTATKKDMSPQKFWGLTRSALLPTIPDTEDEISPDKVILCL
T1 sequence (Q16531 whole entry partner): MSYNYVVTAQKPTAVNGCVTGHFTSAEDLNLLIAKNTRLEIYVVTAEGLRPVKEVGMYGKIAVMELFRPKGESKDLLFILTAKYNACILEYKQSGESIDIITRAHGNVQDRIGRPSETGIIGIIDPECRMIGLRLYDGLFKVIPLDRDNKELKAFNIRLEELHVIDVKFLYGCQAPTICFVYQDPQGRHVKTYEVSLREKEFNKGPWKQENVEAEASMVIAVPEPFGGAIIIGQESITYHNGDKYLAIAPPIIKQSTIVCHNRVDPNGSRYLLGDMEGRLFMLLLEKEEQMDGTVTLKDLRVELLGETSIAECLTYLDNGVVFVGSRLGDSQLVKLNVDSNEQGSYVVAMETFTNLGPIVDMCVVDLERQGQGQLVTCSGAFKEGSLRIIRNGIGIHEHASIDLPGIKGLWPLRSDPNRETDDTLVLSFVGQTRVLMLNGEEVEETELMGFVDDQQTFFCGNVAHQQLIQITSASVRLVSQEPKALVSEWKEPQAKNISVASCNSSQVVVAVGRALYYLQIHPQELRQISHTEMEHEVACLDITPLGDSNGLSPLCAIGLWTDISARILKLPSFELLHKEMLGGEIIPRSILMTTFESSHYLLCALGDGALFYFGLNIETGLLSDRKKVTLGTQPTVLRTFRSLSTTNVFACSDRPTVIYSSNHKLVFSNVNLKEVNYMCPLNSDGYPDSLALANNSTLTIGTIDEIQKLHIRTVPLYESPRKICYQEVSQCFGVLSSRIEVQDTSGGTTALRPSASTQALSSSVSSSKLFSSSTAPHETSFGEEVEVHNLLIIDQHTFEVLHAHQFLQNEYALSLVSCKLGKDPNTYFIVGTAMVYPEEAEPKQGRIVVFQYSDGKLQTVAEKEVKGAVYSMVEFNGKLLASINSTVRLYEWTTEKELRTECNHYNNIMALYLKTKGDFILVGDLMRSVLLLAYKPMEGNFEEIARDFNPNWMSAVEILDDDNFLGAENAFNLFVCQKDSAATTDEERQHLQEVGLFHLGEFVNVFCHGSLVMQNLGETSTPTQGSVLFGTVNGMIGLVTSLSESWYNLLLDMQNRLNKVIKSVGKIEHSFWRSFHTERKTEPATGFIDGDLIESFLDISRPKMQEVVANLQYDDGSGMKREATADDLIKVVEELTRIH

IKZF1 = biological target: T2, IKZF1 (Homo sapiens, UniProt Q13422+Q96SW2); assay: as above; assay type: cell-based; details: Western blot, 24 hours of compound treatment, compounds tested at 50 nM and 500 nM (concentration for the table not stated)
T2 construct: effects of the compounds of the present disclosure on the expression of target proteins in cells; endogenous in cells; host or cells: human PBMCs (Milecell Biotechnologies)
T2 sequence (Q13422 whole entry): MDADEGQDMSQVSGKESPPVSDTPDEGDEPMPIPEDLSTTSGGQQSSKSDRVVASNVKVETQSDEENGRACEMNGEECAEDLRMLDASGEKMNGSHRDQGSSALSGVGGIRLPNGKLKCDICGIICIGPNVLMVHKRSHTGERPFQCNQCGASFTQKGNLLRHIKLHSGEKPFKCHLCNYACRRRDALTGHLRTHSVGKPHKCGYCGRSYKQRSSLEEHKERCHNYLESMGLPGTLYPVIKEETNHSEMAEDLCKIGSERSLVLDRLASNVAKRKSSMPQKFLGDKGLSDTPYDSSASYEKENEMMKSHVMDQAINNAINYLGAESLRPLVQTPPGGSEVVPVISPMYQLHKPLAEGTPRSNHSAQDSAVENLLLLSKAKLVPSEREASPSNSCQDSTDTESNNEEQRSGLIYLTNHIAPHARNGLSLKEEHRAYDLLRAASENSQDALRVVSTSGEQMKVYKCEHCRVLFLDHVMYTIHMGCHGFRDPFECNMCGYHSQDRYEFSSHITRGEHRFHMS
T2 sequence (Q96SW2 whole entry): as the sequence (Q96SW2 whole entry) above
T2 sequence (Q16531 whole entry partner): as the sequence (Q16531 whole entry partner) above

IKZF2 = biological target: T3, IKZF2 (Homo sapiens, UniProt Q96SW2+Q9UKS7); assay: as above; assay type: cell-based; details: Western blot, 24 hours of compound treatment, compounds tested at 50 nM and 500 nM (concentration for the table not stated)
T3 construct: effects of the compounds of the present disclosure on the expression of target proteins in cells; endogenous in cells; host or cells: human PBMCs (Milecell Biotechnologies)
T3 sequence (Q9UKS7 whole entry): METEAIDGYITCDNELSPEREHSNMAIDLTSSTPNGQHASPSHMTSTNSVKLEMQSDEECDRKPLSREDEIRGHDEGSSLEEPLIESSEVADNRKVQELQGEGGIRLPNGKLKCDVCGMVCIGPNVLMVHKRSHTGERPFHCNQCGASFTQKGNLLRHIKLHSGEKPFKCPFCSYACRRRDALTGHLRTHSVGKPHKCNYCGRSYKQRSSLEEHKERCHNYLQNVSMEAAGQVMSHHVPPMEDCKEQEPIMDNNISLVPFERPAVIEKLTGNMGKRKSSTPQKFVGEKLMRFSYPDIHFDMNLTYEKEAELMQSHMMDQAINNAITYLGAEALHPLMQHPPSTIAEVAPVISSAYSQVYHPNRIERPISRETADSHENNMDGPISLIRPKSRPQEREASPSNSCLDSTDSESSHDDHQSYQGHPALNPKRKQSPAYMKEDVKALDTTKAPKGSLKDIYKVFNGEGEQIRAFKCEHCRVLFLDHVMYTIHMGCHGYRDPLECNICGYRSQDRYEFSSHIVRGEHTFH
T3 sequence (Q96SW2 whole entry): as the sequence (Q96SW2 whole entry) above
T3 sequence (Q16531 whole entry partner): as the sequence (Q16531 whole entry partner) above

IKZF3 = biological target: T4, IKZF3 (Homo sapiens, UniProt Q96SW2+Q9UKT9); assay: as above; assay type: cell-based; details: Western blot, 24 hours of compound treatment, compounds tested at 50 nM and 500 nM (concentration for the table not stated)
T4 construct: effects of the compounds of the present disclosure on the expression of target proteins in cells; endogenous in cells; host or cells: human PBMCs (Milecell Biotechnologies)
T4 sequence (Q9UKT9 whole entry): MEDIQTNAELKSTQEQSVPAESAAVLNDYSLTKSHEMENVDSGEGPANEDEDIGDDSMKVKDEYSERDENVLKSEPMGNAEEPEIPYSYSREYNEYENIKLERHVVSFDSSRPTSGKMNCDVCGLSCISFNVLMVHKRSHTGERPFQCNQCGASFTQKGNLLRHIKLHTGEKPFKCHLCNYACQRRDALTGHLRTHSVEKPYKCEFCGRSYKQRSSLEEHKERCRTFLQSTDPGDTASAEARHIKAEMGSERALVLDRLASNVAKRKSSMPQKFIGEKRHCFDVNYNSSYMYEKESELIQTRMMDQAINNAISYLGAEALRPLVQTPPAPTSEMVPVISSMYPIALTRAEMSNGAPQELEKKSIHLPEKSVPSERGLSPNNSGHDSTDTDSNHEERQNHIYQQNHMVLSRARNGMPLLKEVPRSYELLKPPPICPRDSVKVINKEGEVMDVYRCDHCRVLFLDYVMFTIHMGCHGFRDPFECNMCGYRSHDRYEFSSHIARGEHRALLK
T4 sequence (Q96SW2 whole entry): as the sequence (Q96SW2 whole entry) above
T4 sequence (Q16531 whole entry partner): as the sequence (Q16531 whole entry partner) above

WEE1 = biological target: T5, WEE1 (Homo sapiens, UniProt P30291+Q96SW2); assay: as above; assay type: cell-based; details: Western blot, 24 hours of compound treatment, compounds tested at 50 nM and 500 nM (concentration for the table not stated)
T5 construct: effects of the compounds of the present disclosure on the expression of target proteins in cells; endogenous in cells; host or cells: human PBMCs (Milecell Biotechnologies)
T5 sequence (P30291 whole entry): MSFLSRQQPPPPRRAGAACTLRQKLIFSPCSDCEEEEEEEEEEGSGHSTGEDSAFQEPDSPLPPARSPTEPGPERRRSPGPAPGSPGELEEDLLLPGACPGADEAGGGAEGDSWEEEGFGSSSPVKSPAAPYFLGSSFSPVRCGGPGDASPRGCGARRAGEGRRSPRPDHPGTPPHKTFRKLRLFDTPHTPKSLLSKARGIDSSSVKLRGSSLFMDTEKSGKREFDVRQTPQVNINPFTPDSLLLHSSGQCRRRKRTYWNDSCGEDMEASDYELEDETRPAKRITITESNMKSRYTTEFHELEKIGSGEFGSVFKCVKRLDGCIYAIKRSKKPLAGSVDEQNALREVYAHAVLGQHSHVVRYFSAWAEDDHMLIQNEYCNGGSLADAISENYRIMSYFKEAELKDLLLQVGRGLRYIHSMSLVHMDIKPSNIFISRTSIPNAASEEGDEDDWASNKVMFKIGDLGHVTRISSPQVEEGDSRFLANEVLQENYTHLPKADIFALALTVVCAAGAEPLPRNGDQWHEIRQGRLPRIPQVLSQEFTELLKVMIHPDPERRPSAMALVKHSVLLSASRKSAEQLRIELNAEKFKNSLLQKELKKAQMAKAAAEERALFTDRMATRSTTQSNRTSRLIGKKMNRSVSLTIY
T5 sequence (Q96SW2 whole entry): as the sequence (Q96SW2 whole entry) above
T5 sequence (Q16531 whole entry partner): as the sequence (Q16531 whole entry partner) above

GSPT1 = assay: as above; assay type: cell-based, Human; details: Western blot, 24 hours of compound treatment, compounds tested at 50 nM and 500 nM (concentration for the table not stated)
[1] = biological target: T6, human Cereblon WT GST-tagged protein (Homo sapiens, UniProt Q96SW2); assay: CRBN-binding affinity, HTRF (CEREBLON BINDING kit); details: for inhibition at 0.5 µM: read-out: Inhibition Rate at 0.5 µM (%); for inhibition at 2 µM: read-out: Inhibition Rate at 2 µM (%)
T6 construct: purchased CISBIO 64BDCRBNPEH
T6 sequence (Q96SW2 whole entry): as the sequence (Q96SW2 whole entry) above

Row | Compound | CK1α substrate protein remaining % (CK1α) | IKZF 1 substrate protein remaining % (IKZF1) | IKZF2 substrate protein remaining % (IKZF2) | IKZF3 substrate protein remaining % (IKZF3) | Wee1 substrate protein remaining % (WEE1) | GSPT1 substrate protein remaining % (GSPT1) | inhibition at 0.5 µM [1] | inhibition at 2 µM [1]
1 | O=C1CCC(N2Cc3c(CN4CC=C(c5c[nH]c6ncccc56)CC4)cccc3C2=S)C(=O)N1 (stereo not shown) [GT-08494, 3-(4-((4-(1H-pyrrolo[2,3-b]pyridin-3-yl)-3,6-dihydropyridin-1(2H)-yl)methyl)-1-thioxoisoindolin-2-yl)piperidine-2,6-dione] | B (80%< substrate protein remaining %≤ 100%) | A (0% ≤ substrate protein remaining % ≤ 80%) | A (0% ≤ substrate protein remaining % ≤ 80%) | B (80%< substrate protein remaining %≤ 100%) | A (0% ≤ substrate protein remaining % ≤ 80%) | B (80%< substrate protein remaining %≤ 100%) | 60 to 80% | 80 to 100%
2 | COc1ccc(N2CCN(Cc3cccc4c3CN(C3CCC(=O)NC3=O)C4=S)CC2)cc1 (stereo not shown) [GT-08495, 3-(4-((4-(4-methoxyphenyl)piperazin-1-yl)methyl)-1-thioxoisoindolin-2-yl)piperidine-2,6-dione] | B (80%< substrate protein remaining %≤ 100%) | A (0% ≤ substrate protein remaining % ≤ 80%) | A (0% ≤ substrate protein remaining % ≤ 80%) | B (80%< substrate protein remaining %≤ 100%) | A (0% ≤ substrate protein remaining % ≤ 80%) | A (0% ≤ substrate protein remaining % ≤ 80%) | 53 to 60% | 60 to 80%
3 | O=C1CCC(N2Cc3c(CN4CCN(c5ccc(Br)cc5)CC4)cccc3C2=S)C(=O)N1 (stereo not shown) [GT-08496, 3-(4-((4-(4-bromophenyl)piperazin-1-yl)methyl)-1-thioxoisoindolin-2-yl)piperidine-2,6-dione] | B (80%< substrate protein remaining %≤ 100%) | A (0% ≤ substrate protein remaining % ≤ 80%) | A (0% ≤ substrate protein remaining % ≤ 80%) | B (80%< substrate protein remaining %≤ 100%) | A (0% ≤ substrate protein remaining % ≤ 80%) | A (0% ≤ substrate protein remaining % ≤ 80%) | 40 to 53% | 80 to 100%
4 | Cc1cccc(N2CCN(Cc3cccc4c3CN(C3CCC(=O)NC3=O)C4=S)CC2)c1 (stereo not shown) [GT-08498, 3-(1-thioxo-4-((4-(m-tolyl)piperazin-1-yl)methyl)isoindolin-2-yl)piperidine-2,6-dione] | B (80%< substrate protein remaining %≤ 100%) | B (80%< substrate protein remaining %≤ 100%) | A (0% ≤ substrate protein remaining % ≤ 80%) | B (80%< substrate protein remaining %≤ 100%) | A (0% ≤ substrate protein remaining % ≤ 80%) | A (0% ≤ substrate protein remaining % ≤ 80%) | 40 to 53% | 60 to 80%
5 | Cc1ccc(N2CCN(Cc3cccc4c3CN(C3CCC(=O)NC3=O)C4=S)CC2)cc1 (stereo not shown) [GT-08499, 3-(1-thioxo-4-((4-(p-tolyl)piperazin-1-yl)methyl)isoindolin-2-yl)piperidine-2,6-dione] | B (80%< substrate protein remaining %≤ 100%) | B (80%< substrate protein remaining %≤ 100%) | A (0% ≤ substrate protein remaining % ≤ 80%) | B (80%< substrate protein remaining %≤ 100%) | A (0% ≤ substrate protein remaining % ≤ 80%) | A (0% ≤ substrate protein remaining % ≤ 80%) | 30 to 40% | 53 to 60%
6 | O=C1CCC(N2Cc3c(CN4CCN(c5ccc(Cl)c(Cl)c5)CC4)cccc3C2=S)C(=O)N1 (stereo not shown) [GT-08502, 3-(4-((4-(3,4-dichlorophenyl)piperazin-1-yl)methyl)-1-thioxoisoindolin-2-yl)piperidine-2,6-dione] | B (80%< substrate protein remaining %≤ 100%) | B (80%< substrate protein remaining %≤ 100%) | A (0% ≤ substrate protein remaining % ≤ 80%) | B (80%< substrate protein remaining %≤ 100%) | A (0% ≤ substrate protein remaining % ≤ 80%) | A (0% ≤ substrate protein remaining % ≤ 80%) | 40 to 53% | 60 to 80%
7 | O=C1CCC(N2Cc3c(CN4CCN(c5ccc(F)cc5F)CC4)cccc3C2=S)C(=O)N1 (stereo not shown) [GT-08503, 3-(4-((4-(2,4-difluorophenyl)piperazin-1-yl)methyl)-1-thioxoisoindolin-2-yl)piperidine-2,6-dione] | B (80%< substrate protein remaining %≤ 100%) | B (80%< substrate protein remaining %≤ 100%) | B (80%< substrate protein remaining %≤ 100%) | B (80%< substrate protein remaining %≤ 100%) | A (0% ≤ substrate protein remaining % ≤ 80%) | A (0% ≤ substrate protein remaining % ≤ 80%) | 40 to 53% | 60 to 80%
8 | Cc1ccc(Cl)cc1N1CCN(Cc2cccc3c2CN(C2CCC(=O)NC2=O)C3=S)CC1 (stereo not shown) [GT-08505, 3-(4-((4-(5-chloro-2-methylphenyl)piperazin-1-yl)methyl)-1-thioxoisoindolin-2-yl)piperidine-2,6-dione] | B (80%< substrate protein remaining %≤ 100%) | B (80%< substrate protein remaining %≤ 100%) | B (80%< substrate protein remaining %≤ 100%) | A (0% ≤ substrate protein remaining % ≤ 80%) | A (0% ≤ substrate protein remaining % ≤ 80%) | B (80%< substrate protein remaining %≤ 100%) | 40 to 53% | 60 to 80%
9 | O=C1CCC(N2Cc3c(CN4CCC(c5cccc(Br)c5)CC4)cccc3C2=S)C(=O)N1 (stereo not shown) [GT-08507, 3-(4-((4-(3-bromophenyl)piperidin-1-yl)methyl)-1-thioxoisoindolin-2-yl)piperidine-2,6-dione] | B (80%< substrate protein remaining %≤ 100%) | B (80%< substrate protein remaining %≤ 100%) | B (80%< substrate protein remaining %≤ 100%) | A (0% ≤ substrate protein remaining % ≤ 80%) | A (0% ≤ substrate protein remaining % ≤ 80%) | B (80%< substrate protein remaining %≤ 100%) | 40 to 53% | 60 to 80%
10 | O=C1CCC(N2Cc3c(CN4CCC(c5ccc(Br)cc5)CC4)cccc3C2=S)C(=O)N1 (stereo not shown) [GT-08592, 3-(4-((4-(4-bromophenyl)piperidin-1-yl)methyl)-1-thioxoisoindolin-2-yl)piperidine-2,6-dione] | B (80%< substrate protein remaining %≤ 100%) | B (80%< substrate protein remaining %≤ 100%) | B (80%< substrate protein remaining %≤ 100%) | B (80%< substrate protein remaining %≤ 100%) | A (0% ≤ substrate protein remaining % ≤ 80%) | B (80%< substrate protein remaining %≤ 100%) | 40 to 53% | 60 to 80%
11 | O=C1CCC(N2Cc3c(CN4CCN(c5cc(F)ccc5F)CC4)cccc3C2=S)C(=O)N1 (stereo not shown) [GT-08593, 3-(4-((4-(2,5-difluorophenyl)piperazin-1-yl)methyl)-1-thioxoisoindolin-2-yl)piperidine-2,6-dione] | B (80%< substrate protein remaining %≤ 100%) | B (80%< substrate protein remaining %≤ 100%) | B (80%< substrate protein remaining %≤ 100%) | B (80%< substrate protein remaining %≤ 100%) | A (0% ≤ substrate protein remaining % ≤ 80%) | B (80%< substrate protein remaining %≤ 100%) | 40 to 53% | 60 to 80%
